# Like-named read-outs stand apart in the source and are kept apart here.
# How the values were obtained:
# [1] = target: T1, Rat recombinant PDE10A (rPDE10A2) (Rattus norvegicus, UniProt Q9QYJ6); test: In vitro assay PDE10A (SPA, 3H-cAMP); type: biochemical; conditions: pIC50 corresponds to the -log IC50 expressed in mol/L; for IC50: read-out: PDE10A2 pIC50 (converted)
# T1 construct: made in house; host or cells: Sf9 insect cells, baculovirus
# T1 sequence (Q9QYJ6 1-794): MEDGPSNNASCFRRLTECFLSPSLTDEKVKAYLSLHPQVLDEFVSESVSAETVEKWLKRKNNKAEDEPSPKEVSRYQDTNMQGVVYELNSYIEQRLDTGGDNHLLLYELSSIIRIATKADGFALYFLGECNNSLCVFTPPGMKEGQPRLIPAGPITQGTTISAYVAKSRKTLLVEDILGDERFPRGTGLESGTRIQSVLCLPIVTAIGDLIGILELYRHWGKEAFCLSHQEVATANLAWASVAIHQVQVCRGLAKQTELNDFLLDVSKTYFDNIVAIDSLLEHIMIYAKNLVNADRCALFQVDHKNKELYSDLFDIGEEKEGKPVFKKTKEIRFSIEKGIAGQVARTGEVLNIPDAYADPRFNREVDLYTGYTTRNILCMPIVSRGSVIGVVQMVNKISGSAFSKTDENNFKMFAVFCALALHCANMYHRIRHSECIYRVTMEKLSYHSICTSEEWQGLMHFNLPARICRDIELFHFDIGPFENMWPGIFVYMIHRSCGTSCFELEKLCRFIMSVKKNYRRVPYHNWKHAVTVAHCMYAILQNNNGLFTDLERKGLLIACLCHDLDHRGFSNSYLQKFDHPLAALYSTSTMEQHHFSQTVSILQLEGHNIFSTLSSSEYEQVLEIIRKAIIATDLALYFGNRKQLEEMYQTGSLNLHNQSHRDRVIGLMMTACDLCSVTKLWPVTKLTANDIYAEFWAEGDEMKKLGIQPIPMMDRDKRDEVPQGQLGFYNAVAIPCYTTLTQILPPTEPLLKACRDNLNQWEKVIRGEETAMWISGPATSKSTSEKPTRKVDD
# Procedure: Rat recombinant PDE10A (rPDE10A2) was expressed in Sf9 cells using a recombinant rPDE10A baculovirus construct. Cells were harvested after 48 h of infection and the rPDE10A protein was purified by metal chelate chromatography on Ni-sepharose 6FF. Tested compounds were dissolved and diluted in 100% DMSO to a concentration 100 fold of the final concentration in the assay. Compound dilutions (0.4 μl) were added in 384 well plates to 20 μl of incubation buffer (50 mM Tris pH 7.8, 8.3 mM MgCl2, 1.7 mM EGTA). 10 μl of rPDE10A enzyme in incubation buffer was added and the reaction was started by addition of 10 μl substrate to a final concentration of 60 nM cAMP and 0.008 μCi ^3H-cAMP. The reaction was incubated for 60 min. at RT. […] After sedimentation of the beads during 30 min. the radioactivity was measured in a Perkin Elmer Topcount scintillation counter and results were expressed as cpm. For blank values the enzyme was omitted from the reaction and replaced by incubation buffer. Control values were obtained by addition of a final concentration of 1% DMSO instead of compound. The same assay principle is applied for the measurement of the affinity of the compound for other members of the PDE family with appropriate modifications in incubation buffer, substrate concentration, incubation time and stop solution.
# [2] = target: T2, PDE10 (Rattus norvegicus, UniProt Q9QYJ6); test: PDE10 occupancy ([3H]-MP-10, striatum); type: in vivo; conditions: for receptor occupancy at 10 mg/kg / ED50: rat; for receptor occupancy at 10 mg/kg: 1 h, read-out: % occ. printed under Occ. ED50 >10; for ED50: occupancy, read-out: Occ. ED50
# T2 construct: from tissue; host or cells: rat brain sections, striatum (ex vivo autoradiography after in vivo dosing)
# T2 sequence (Q9QYJ6 1-794): T1 sequence (Q9QYJ6 1-794)
# Procedure: Dose-response or single dose experiments were performed to measure PDE10 occupancy 1 hour after subcutaneous (s.c.) or oral (p.o.) administration. Male Wistar rats (200 g) were treated by s.c. or p.o. administration of various PDE10 inhibitors. The PDE10 radioligand [^3H]-MP-10 (10 μCi/animal) was injected intravenously (i.v.) 30 minutes before sacrifice. Brains were immediately removed from the skull and rapidly frozen. Twenty μm-thick brain sections were cut using a cryostat-microtome, thaw-mounted on microscope slides and loaded in a β-imager to quantify PDE10 occupancy in the striatum.
# [3] = tested on: apomorphine-induced stereotypy; test: Apomorphine-induced stereotypy in rats (APO); type: in vivo; conditions: Rattus norvegicus
# Procedure: Apomorphine-Induced Stereotypy in Rats (APO)
# Apomorphine (1.0 mg/kg, i.v.)-induced stereotypy (compulsive sniffing, licking, chewing) was scored every 5 min. over the first hour after injection of apomorphine, following a 1 hour interval pre-treatment with the test compound. The score system was: (3) pronounced, (2) moderate, (1) slight, and (O) absent.
# [4] = tested on: PCP-induced hyperlocomotion; test: PCP-induced hyperlocomotion in rats (PCP); type: in vivo; conditions: Rattus norvegicus
# [5] = po, * compound was not soluble and was tested orally as a suspension, read-out: APO ED50
# [6] = not active at 2.5 or at 10 mg/kg, not further tested, read-out: APO ED50 (not active at threshold dose)
% Occ. at 10 mg/kg ([2]; administered s.c.) [%],Structure (SMILES),IC50 [1] [nM],ED50 ([3]; read-out: APO ED50) [mg/kg],other results
55,Cc1nc2c(-c3ccncc3)nccn2c1-c1cnn(CC(F)(F)F)c1 [compound 67],85.1,–,"ED50 [3, 5]: 3.1 mg/kg"
–,"COCCc1ccc(-c2c(C(F)(F)F)nc3c(N4CCOCC4)nccn23)cn1 [compound 12, 3-[6-(2-Methoxy-ethyl)-pyridin-3-yl]-8-morpholin-4-yl-2-trifluoromethyl-imidazo[1,2-a]pyrazine]",–,≤ 2.5,"receptor occupancy at 10 mg/kg ([2]; sc): 22%; ED50 ([2]; sc, administered s.c.): > 10 mg/kg"
–,COCCn1cc(-c2c(C)nc3c(-c4cccnc4)nccn23)cn1 [compound 135],–,–,"PDE10A2 pIC50 [1]: 6.25; receptor occupancy at 10 mg/kg ([2]; po): 29%; ED50 ([2]; po, administered p.o. (a)): > 10 mg/kg"
52,"COCCn1cc(-c2c(C)nc3c(-c4ccncc4)nccn23)cn1 [compound 34, 3-[1-(2-Methoxy-ethyl)-1H-pyrazol-4-yl]-2-methyl-8-pyridin-4-yl-imidazo[1,2-a]pyrazine]",263,–,"ED50 [3, 5]: 1.2 mg/kg"
–,"COCCc1ccc(-c2c(C)nc3c(-c4ccncc4)nccn23)cn1 [compound 8, 3-[6-(2-Methoxy-ethyl)-pyridin-3-yl]-2-methyl-8-pyridin-4-yl-imidazo[1,2-a]pyrazine]",–,1.2,"ED50 ([2]; sc, administered s.c.): 2.6 mg/kg"
–,FC(F)(F)Cn1cc(-c2c(C3CC3)nc3c(-c4ccncc4)nccn23)cn1 [compound 45],20,–,"% Occ. at 10 mg/kg ([2]; administered p.o. (a)): 53^a %; ED50 [3, 5]: 3.1 mg/kg"
41,FC(F)(F)Cn1cc(-c2c(C3CC3)nc3c(N4CCOCC4)nccn23)cn1 [compound 46],25.1,–,"ED50 [3, 5]: 5 mg/kg"
11,Cc1nc2c(N3CCOCC3)nccn2c1-c1ccnc(OC(C)C)c1 [compound 113],251,–,"ED50 [3, 6]: > 2.5 mg/kg"
–,"Cc1nc2c(N3CCOCC3)nccn2c1-c1ccc(C2CC2)nc1 [compound 28, 3-(6-Cyclopropyl-pyridin-3-yl)-2-methyl-8-morpholin-4-yl-imidazo[1,2-a]pyrazine]",–,–,"receptor occupancy at 10 mg/kg ([2]; sc): 31%; ED50 ([2]; sc, administered s.c.): > 10 mg/kg; ED50 [3, 5]: 1.2 mg/kg"
0,COCCn1cc(-c2c(C(F)(F)F)nc3c(N4CCOCC4)nccn23)cn1 [compound 118],–,–,"PDE10A2 pIC50 [1]: 6.51; ED50 [3, 6]: > 2.5 mg/kg"
–,Cc1nc2c(N3CCOCC3)nccn2c1-c1cnn(Cc2cccnc2)c1 [compound 65],85.1,5,–
–,"CC(=O)CCn1cc(-c2c(C)nc3c(N4CCOCC4)nccn23)cn1 [compound 36, 4-[4-(2-Methyl-8-morpholin-4-yl-imidazo[1,2-a]pyrazin-3-yl)-pyrazol-1-yl]-butan-2-one]",138,3.1,–
–,Cc1nc2c(N3CCOCC3)nccn2c1-c1cnn(CCF)c1 [compound 96],141,5,–
–,"COCCc1ccc(-c2c(OC)nc3c(N4CCOCC4)nccn23)cn1 [compound 15, 2-Methoxy-3-[6-(2-methoxy-ethyl)-pyridin-3-yl]-8-morpholin-4-yl-imidazo[1,2-a]pyrazine]",–,1.2,"ED50 ([2]; sc, administered s.c.): 1.5 mg/kg"
–,COCCCn1cc(-c2c(C)nc3c(-c4ccncc4)nccn23)cn1 [compound 102],166,5,–
–,Cc1nc2c(N3CCOCC3)nccn2c1-c1ccnc(N2CCCC2)c1 [compound 99],151,–,"ED50 [3, 6]: > 2.5 mg/kg"
10,COCCn1cc(-c2c(C)nc3c(N4CCCC4)nccn23)cn1 [compound 130],–,–,"PDE10A2 pIC50 [1]: 6.3; ED50 [3, 6]: > 2.5 mg/kg"
–,"COCCc1ncc(-c2c(C)nc3c(N4CCOCC4)nccn23)cc1F [compound 17, 3-[5-Fluoro-6-(2-methoxy-ethyl)-pyridin-3-yl]-2-methyl-8-morpholin-4-yl-imidazo[1,2-a]pyrazine]",275,–,"ED50 [3, 6]: > 2.5 mg/kg"
–,Cc1nc2c(N3CCOCC3)nccn2c1-c1ccc(OCC(F)(F)F)nc1 [compound 122],380,–,"ED50 [3, 6]: > 2.5 mg/kg"
–,Cc1nc2c(N3CCOCC3)nccn2c1-c1cnn(C(C)C)c1 [compound 81],–,–,"PDE10A2 pIC50 [1]: 6.95; ED50 [3, 6]: > 2.5 mg/kg"
–,CCOC(C)(C)c1ccc(-c2c(C)nc3c(N4CCOCC4)nccn23)cn1 [compound 55],57.5,–,"ED50 [3, 6]: > 2.5 mg/kg"
–,COCCn1cc(-c2c(C3CC3)nc3c(N4CCOCC4)nccn23)cn1 [compound 53],–,5,PDE10A2 pIC50 [1]: 7.27; ED50 [4]: ≤ 40 mg/kg
–,Cc1nc2c(N3CCOCC3)nccn2c1-c1cnn(C2CCOC2)c1 (centres unmarked) [compound 82],115,3.1,–
–,"Cc1nc2c(N3CCOCC3)nccn2c1-c1cnn(CC2CCCCO2)c1 (single isomer, unassigned) [compound 70]",91.2,5,ED50 [4]: 3.2 mg/kg
–,"COC(C)(C)c1ccc(-c2c(C)nc3c(N4CCOCC4)nccn23)cn1 [compound 30, 3-[6-(1-Methoxy-1-methyl-ethyl)-pyridin-3-yl]-2-methyl-8-morpholin-4-yl-imidazo[1,2-a]pyrazine]",107,1.2,"ED50 ([2]; sc, administered s.c.): 3.4 mg/kg"
–,"Cc1nc2c(N3CCOCC3)nccn2c1-c1cnn(CC2CCCO2)c1 (single isomer, unassigned) [compound 71]",95.5,5,–
–,Cc1nc2c(N3CCOCC3)nccn2c1-c1cnn(Cc2ccc3ccccc3n2)c1 [compound 112],–,–,"PDE10A2 pIC50 [1]: 6.63; ED50 [3, 6]: > 2.5 mg/kg"
–,COC[C@@H](C)n1cc(-c2c(C)nc3c(N4CCOCC4)nccn23)cn1 [compound 110],214,3.1,–

Structure (SMILES),% Occ. at 10 mg/kg ([2]; administered s.c.) [%],IC50 [1] [nM],ED50 ([3]; read-out: APO ED50) [mg/kg],other results
COCCn1cc(-c2c(C3CC3)nc3c(-c4ccncc4)nccn23)cn1 [compound 51],61,50.1,1.2,–
COC(C)(C)Cn1cc(-c2c(C3CC3)nc3c(N4CCOCC4)nccn23)cn1 [compound 48],53,33.1,3.1,–
"Cc1nc2c(N3CCOCC3)nccn2c1-c1cnc(CC(C)C)s1 [compound 42, 3-(2-Isobutyl-thiazol-5-yl)-2-methyl-8-morpholin-4-yl-imidazo[1,2-a]pyrazine]",59,–,5,–
COC(C)(C)Cn1cc(-c2c(C3CC3)nc3c(-c4ccncc4)nccn23)cn1 [compound 50],72,47.9,5,–
"Cc1nc2c(N3CCOCC3)nccn2c1-c1ccc(N2CCOCC2)nc1 [compound 4, 2-Methyl-8-morpholin-4-yl-3-(6-morpholin-4-yl-pyridin-3-yl)-imidazo[1,2-a]pyrazine]",28,141,3.1,–

# Source: patent publication US8859543B2, “Imidazo[1,2-a]pyrazine derivatives and their use for the prevention or treatment of neurological, psychiatric and metabolic disorders and diseases” (Janssen Pharmaceutica NV, priority 2010, dated 2014)
